Values belong to the molecule of their own block, whether it stands above or below them.
Assays:
Type in all cases: functional, cell-based
[1] = biological target: T1, Solute carrier family 22 member 7 (Homo sapiens, UniProt Q9Y694); test: TP_TRANSPORTER: inhibition of PGF2alpha uptake (PGF2alpha: 0.005 uM, Oxytetracycline: 5 uM) in OAT2-expressing S2 cells; settings: s2, 5 µM
T1 sequence (Q9Y694 whole entry): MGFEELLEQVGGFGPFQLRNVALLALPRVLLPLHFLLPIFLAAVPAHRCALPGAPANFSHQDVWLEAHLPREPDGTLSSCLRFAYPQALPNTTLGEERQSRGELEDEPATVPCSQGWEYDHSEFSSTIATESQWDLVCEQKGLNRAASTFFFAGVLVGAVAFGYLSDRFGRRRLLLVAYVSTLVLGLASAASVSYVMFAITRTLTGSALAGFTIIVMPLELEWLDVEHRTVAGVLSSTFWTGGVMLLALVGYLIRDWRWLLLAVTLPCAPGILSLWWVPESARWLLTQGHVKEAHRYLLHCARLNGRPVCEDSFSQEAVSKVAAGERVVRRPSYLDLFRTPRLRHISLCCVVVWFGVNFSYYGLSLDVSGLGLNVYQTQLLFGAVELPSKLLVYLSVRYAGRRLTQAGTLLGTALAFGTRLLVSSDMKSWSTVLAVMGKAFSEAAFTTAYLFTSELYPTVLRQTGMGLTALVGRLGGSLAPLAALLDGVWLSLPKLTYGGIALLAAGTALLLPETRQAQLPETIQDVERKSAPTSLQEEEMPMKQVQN

[2] = biological target: T2, Solute carrier family 22 member 11 (Homo sapiens, UniProt Q9NSA0); test: TP_TRANSPORTER: inhibition of E1S uptake (E1S: 0.05 uM, Oxytetracycline: 50 uM) in OAT4-expressing S2 cells; settings: mouse, s2, 50 µM
T2 sequence (Q9NSA0 whole entry): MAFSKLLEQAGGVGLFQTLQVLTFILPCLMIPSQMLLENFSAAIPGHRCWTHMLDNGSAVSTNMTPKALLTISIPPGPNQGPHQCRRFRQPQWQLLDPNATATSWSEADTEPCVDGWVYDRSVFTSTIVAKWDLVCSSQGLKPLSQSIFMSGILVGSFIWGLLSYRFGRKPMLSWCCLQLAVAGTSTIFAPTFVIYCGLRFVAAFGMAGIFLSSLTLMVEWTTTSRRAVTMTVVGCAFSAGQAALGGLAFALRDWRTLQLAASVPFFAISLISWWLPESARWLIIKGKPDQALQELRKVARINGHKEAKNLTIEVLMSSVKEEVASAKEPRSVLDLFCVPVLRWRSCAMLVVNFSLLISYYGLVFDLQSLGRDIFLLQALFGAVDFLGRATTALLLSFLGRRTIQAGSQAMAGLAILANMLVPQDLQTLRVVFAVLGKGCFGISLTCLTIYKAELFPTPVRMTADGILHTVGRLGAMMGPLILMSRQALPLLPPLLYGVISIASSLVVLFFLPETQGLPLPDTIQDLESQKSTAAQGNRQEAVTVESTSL

[3] = biological target: T3, Organic anion transporter 3 (Homo sapiens, UniProt Q8TCC7); test: TP_TRANSPORTER: inhibition of E1S uptake (E1S: 0.05 uM, Oxytetracycline: 50 uM) in OAT3-expressing S2 cells; settings: s2, 50 µM
T3 sequence (Q8TCC7 whole entry): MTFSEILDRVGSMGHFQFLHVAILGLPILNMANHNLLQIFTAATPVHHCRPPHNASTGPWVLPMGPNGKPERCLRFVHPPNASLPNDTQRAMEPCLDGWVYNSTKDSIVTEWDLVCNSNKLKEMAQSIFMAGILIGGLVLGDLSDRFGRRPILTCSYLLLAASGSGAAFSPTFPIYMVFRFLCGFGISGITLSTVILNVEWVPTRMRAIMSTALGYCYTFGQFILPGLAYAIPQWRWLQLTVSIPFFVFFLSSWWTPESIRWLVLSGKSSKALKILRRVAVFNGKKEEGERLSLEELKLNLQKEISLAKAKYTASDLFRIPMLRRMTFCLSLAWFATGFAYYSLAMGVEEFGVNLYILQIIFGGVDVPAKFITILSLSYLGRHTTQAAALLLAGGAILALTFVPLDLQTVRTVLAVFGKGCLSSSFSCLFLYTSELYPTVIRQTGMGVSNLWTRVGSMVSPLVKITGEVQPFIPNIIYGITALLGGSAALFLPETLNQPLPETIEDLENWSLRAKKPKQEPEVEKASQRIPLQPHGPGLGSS

[4] = biological target: T4, Solute carrier family 22 member 6 (Homo sapiens, UniProt Q4U2R8); test: TP_TRANSPORTER: inhibition of PAH uptake (PAH: 5 uM, Oxytetracycline: 500 uM) in OAT1-expressing S2 cells; settings: mouse, s2, 500 µM
T4 sequence (Q4U2R8 whole entry): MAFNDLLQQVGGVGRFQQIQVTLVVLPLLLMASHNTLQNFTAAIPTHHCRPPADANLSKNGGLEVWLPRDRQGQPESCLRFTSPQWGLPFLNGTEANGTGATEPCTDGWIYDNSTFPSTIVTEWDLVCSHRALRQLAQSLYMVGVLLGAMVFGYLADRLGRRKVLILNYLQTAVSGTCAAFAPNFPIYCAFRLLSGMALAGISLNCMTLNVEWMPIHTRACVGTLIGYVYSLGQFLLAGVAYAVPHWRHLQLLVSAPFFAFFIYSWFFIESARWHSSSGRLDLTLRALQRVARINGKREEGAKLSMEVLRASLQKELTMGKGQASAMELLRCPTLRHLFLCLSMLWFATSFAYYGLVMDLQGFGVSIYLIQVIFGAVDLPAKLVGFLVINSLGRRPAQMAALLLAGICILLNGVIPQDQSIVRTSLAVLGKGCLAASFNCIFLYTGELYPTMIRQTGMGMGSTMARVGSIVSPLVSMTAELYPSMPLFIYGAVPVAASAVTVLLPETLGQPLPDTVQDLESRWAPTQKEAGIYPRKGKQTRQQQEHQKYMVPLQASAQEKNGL

[5] = biological target: T1, Solute carrier family 22 member 7; test: TP_TRANSPORTER: inhibition of PGF2alpha uptake (PGF2alpha: 0.005 uM, Tetracycline: 5 uM) in OAT2-expressing S2 cells; settings: mouse, s2, 5 µM
[6] = biological target: T2, Solute carrier family 22 member 11; test: TP_TRANSPORTER: inhibition of E1S uptake (E1S: 0.05 uM, Tetracycline: 50 uM) in OAT4-expressing S2 cells; settings: mouse, s2, 50 µM
[7] = biological target: T3, Organic anion transporter 3; test: TP_TRANSPORTER: inhibition of E1S uptake (E1S: 0.05 uM, Tetracycline: 50 uM) in OAT3-expressing S2 cells; settings: mouse, s2, 50 µM
[8] = biological target: T4, Solute carrier family 22 member 6; test: TP_TRANSPORTER: inhibition of PAH uptake (PAH: 5 uM, Tetracycline: 1000 uM) in OAT1-expressing S2 cells; settings: s2, 1000 µM
[9] = biological target: T1, Solute carrier family 22 member 7; test: TP_TRANSPORTER: inhibition of PGF2alpha uptake (PGF2alpha: 0.005 uM, Minocycline: 5 uM) in OAT2-expressing S2 cells; settings: s2, 5 µM
[10] = biological target: T2, Solute carrier family 22 member 11; test: TP_TRANSPORTER: inhibition of E1S uptake (E1S: 0.05 uM, Minocycline: 50 uM) in OAT4-expressing S2 cells; settings: mouse, s2, 50 µM
[11] = biological target: T3, Organic anion transporter 3; test: TP_TRANSPORTER: inhibition of E1S uptake (E1S: 0.05 uM, Minocycline: 50 uM) in OAT3-expressing S2 cells; settings: s2, 50 µM
[12] = biological target: T4, Solute carrier family 22 member 6; test: TP_TRANSPORTER: inhibition of PAH uptake (PAH: 5 uM, Minocycline: 500 uM) in OAT1-expressing S2 cells; settings: s2, 500 µM
[13] = biological target: T2, Solute carrier family 22 member 11; test: TP_TRANSPORTER: inhibition of E1S uptake (E1S: 0.05 uM, Doxycycline: 50 uM) in OAT4-expressing S2 cells; settings: mouse, s2, 50 µM
[14] = biological target: T3, Organic anion transporter 3; test: TP_TRANSPORTER: inhibition of E1S uptake (E1S: 0.05 uM, Doxycycline: 50 uM) in OAT3-expressing S2 cells; settings: s2, 50 µM
[15] = biological target: T4, Solute carrier family 22 member 6; test: TP_TRANSPORTER: inhibition of PAH uptake (PAH: 5 uM, Doxycycline: 500 uM) in OAT1-expressing S2 cells; settings: s2, 500 µM
[16] = substrate: CN(C)[C@@H]1C(O)=C(C(N)=O)C(=O)[C@@]2(O)C(O)=C3C(=O)c4c(O)cccc4[C@@](C)(O)[C@H]3C[C@@H]12; test: TP_TRANSPORTER: uptake in OAT3-expressing S2 cells
[17] = substrate: CN(C)[C@@H]1C(O)=C(C(N)=O)C(=O)[C@@]2(O)C(O)=C3C(=O)c4c(O)cccc4[C@@](C)(O)[C@H]3C[C@@H]12; test: TP_TRANSPORTER: uptake in OAT2-expressing S2 cells
[18] = substrate: CN(C)[C@@H]1C(O)=C(C(N)=O)C(=O)[C@@]2(O)C(O)=C3C(=O)c4c(O)cccc4[C@@](C)(O)[C@H]3C[C@@H]12; test: TP_TRANSPORTER: uptake in OAT4-expressing S2 cells

Activity [2]: is not an inhibitor [-]
Activity [3]: is not an inhibitor [-]
Molecule: CN(C)[C@@H]1C(O)=C(C(N)=O)C(=O)[C@@]2(O)C(O)=C3C(=O)c4c(O)cccc4[C@@](C)(O)[C@H]3[C@H](O)[C@@H]12 [OXYTETRACYCLINE]
Activity [1]: inhibitor [(at a rough estimate) 80 % of control]
Activity [4]: inhibitor [(at a rough estimate) 20 % of control]

Activity [7]: is not an inhibitor [-]
Molecule: CN(C)[C@@H]1C(O)=C(C(N)=O)C(=O)[C@@]2(O)C(O)=C3C(=O)c4c(O)cccc4[C@@](C)(O)[C@H]3C[C@@H]12 [TETRACYCLINE]
Activity [5]: inhibitor [(at a rough estimate) 85 % of control]
Activity [6]: inhibitor [(at a rough estimate) 75 % of control]
Activity [8]: inhibitor [(at a rough estimate) 45 % of control]

Activity [10]: is not an inhibitor [-]
Activity [11]: is not an inhibitor [-]
Molecule: CN(C)c1ccc(O)c2c1C[C@H]1C[C@H]3[C@H](N(C)C)C(O)=C(C(N)=O)C(=O)[C@@]3(O)C(O)=C1C2=O [MINOCYCLINE]
Activity [9]: inhibitor [(at a rough estimate) 80 % of control]
Activity [12]: inhibitor [(at a rough estimate) 10 % of control]

The next lines start with the molecule.

Molecule: C[C@H]1c2cccc(O)c2C(=O)C2=C(O)[C@]3(O)C(=O)C(C(N)=O)=C(O)[C@@H](N(C)C)[C@@H]3[C@@H](O)[C@@H]21.O [DOXYCYCLINE]
Activity [13]: is not an inhibitor [-]
Activity [14]: is not an inhibitor [-]
Activity [15]: inhibitor [(at a rough estimate) 25 % of control]

B1: Organic anion transporter 3 (Homo sapiens) (protein)
chain: T3 sequence (Q8TCC7 whole entry)
Km [16]: 566 µM

B2: Solute carrier family 22 member 7 (Homo sapiens) (protein)
chain: T1 sequence (Q9Y694 whole entry)
Km [17]: 440 µM

B3: Solute carrier family 22 member 11 (Homo sapiens) (protein)
chain: T2 sequence (Q9NSA0 whole entry)
Km [18]: 123 µM

Reference: ChEMBL document CHEMBL2074363, “Human organic anion transporters mediate the transport of tetracycline” (Jpn J Pharmacol, 2002)
